Target: T1, Human ALDH3A1 (Homo sapiens, UniProt P30838)
T1 sequence (P30838 1-453): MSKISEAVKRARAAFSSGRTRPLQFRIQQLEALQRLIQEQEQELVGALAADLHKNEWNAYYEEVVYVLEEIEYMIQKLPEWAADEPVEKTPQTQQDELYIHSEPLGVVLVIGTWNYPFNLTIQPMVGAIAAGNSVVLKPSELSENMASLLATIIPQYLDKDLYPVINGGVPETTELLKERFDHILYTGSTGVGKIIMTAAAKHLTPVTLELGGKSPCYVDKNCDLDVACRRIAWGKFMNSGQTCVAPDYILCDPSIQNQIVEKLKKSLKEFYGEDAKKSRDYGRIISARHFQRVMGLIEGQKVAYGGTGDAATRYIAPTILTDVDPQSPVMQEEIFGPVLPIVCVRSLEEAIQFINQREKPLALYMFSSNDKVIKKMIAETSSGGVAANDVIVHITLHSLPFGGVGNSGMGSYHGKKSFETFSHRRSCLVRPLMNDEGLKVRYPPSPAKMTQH
Assay: ALDH3A1 biochemical assay (benzaldehyde/NADP+, diaphorase-resazurin readout, 1,536-well)
Conditions: for CC-v2: curve class

Row | Structure (SMILES) | AC50 | Efficacy (Table S1, primary screen) | CC-v2 (Table S1, primary screen) | Efficacy (ALDH3A1 biochemical) | IC50 (ALDH3A1 biochemical IC50, text) | Efficacy (Table S2, in-house analogs) | CC-v2 (Table S2, in-house analogs) | LLE (Table S7, pAC50 − cLogP)
1 | COc1ccc(OCc2cc(C(=O)NC(CO)C(C)C)no2)c2ccccc12 (stereo not drawn) [NCGC00427669-01] | 3.98 µM | -69.95 | -1.2 | – | – | – | – | –
2 | COCc1noc(-c2ccc(NC[C@H]3CCc4ccccc4O3)nc2)n1 [NCGC00428876-01] | 31.6 µM | -39.16 | -2.2 | – | – | – | – | –
3 | COCCNC(=O)c1ccc2c(c1)N(C)C(CC(=O)NCC(C)C)CO2 (stereo not drawn) [NCGC00429361-01] | 28.2 µM | -36.95 | -3 | – | – | – | – | –
4 | Cc1cccc(CNC(=O)c2csc(N3CCN(c4ccccc4)CC3)n2)c1 [NCGC00430642-01] | 1.41 µM | – | – | 74% | 1.41 µM | -74.85 | -1.2 | 2.143
5 | COc1ccc(N2CCN(c3nc(C(=O)NCc4ccc(F)cc4F)cs3)CC2)cc1 [NCGC00430664-01] | 4.47 µM | – | – | – | – | -32.83 | -1.4 | –
6 | COc1ccc(N2CCN(c3nc(C(=O)NCc4ccccc4C)cs3)CC2)cc1 [NCGC00430666-01] | 3.55 µM | – | – | – | – | -54.85 | -1.2 | –
7 | COc1ccc(N2CCN(c3nc(C(=O)NCc4ccc(C)cc4)cs3)CC2)cc1 [NCGC00430668-01] | 3.98 µM | – | – | – | – | -57.20 | -1.2 | –
8 | COc1ccc(N2CCN(c3nc(C(=O)NCC4CCCCC4)cs3)CC2)cc1 [NCGC00430670-01] | 0.25 µM | – | – | – | – | -27.44 | -1.4 | –
9 | COc1ccc(N2CCN(c3nc(C(=O)NC4CC4)cs3)CC2)cc1 [NCGC00430672-01] | 0.11 µM | – | – | – | – | -32.51 | -1.2 | –
10 | COc1cccc(N2CCN(c3nc(C(=O)NCc4cccnc4)cs3)CC2)c1 [NCGC00430684-01] | 14.1 µM | – | – | – | – | -68.54 | -2.2 | –
11 | COc1cccc(N2CCN(c3nc(C(=O)NCc4ccncc4)cs3)CC2)c1 [NCGC00430686-01] | 12.6 µM | – | – | – | – | -75.42 | -2.2 | –
12 | COc1cccc(N2CCN(c3nc(C(=O)NCc4ccccc4F)cs3)CC2)c1 [NCGC00430688-01] | 2.82 µM | – | – | – | – | -45.69 | -1.2 | –
13 | O=C(NCc1ccccc1)c1csc(N2CCN(c3ccc(Cl)cc3)CC2)n1 [NCGC00430698-01] | 2 µM | – | – | – | – | -75.40 | -1.2 | –
14 | O=C(NC1CCCC1)c1csc(N2CCN(c3cccc(Cl)c3)CC2)n1 [NCGC00430704-01] | 15.8 µM | – | – | – | – | -42.05 | -2.4 | –
15 | O=C(NCc1ccncc1)c1csc(N2CCN(c3ccccc3F)CC2)n1 [NCGC00430720-01] | 15.8 µM | – | – | – | – | -57.30 | -2.2 | –
16 | O=C(NCc1ccc(F)cc1)c1csc(N2CCN(c3ccccc3F)CC2)n1 [NCGC00430726-01] | 2 µM | – | – | – | – | -64.54 | -1.2 | –
17 | O=C(NCC1CC1)c1csc(N2CCN(c3ccccc3F)CC2)n1 [NCGC00430728-01] | 28.2 µM | – | – | – | – | -37.07 | -2.4 | –
18 | O=C(NCc1cccs1)c1csc(N2CCN(c3ccccc3F)CC2)n1 [NCGC00430730-01] | 6.31 µM | – | – | – | – | -78.52 | -1.2 | –
19 | O=C(NCc1ccccc1Cl)c1csc(N2CCN(c3ccc(F)cc3)CC2)n1 [NCGC00430734-01] | 1.78 µM | – | – | – | – | -71.11 | -1.2 | –
20 | O=C(NCc1cccs1)c1csc(N2CCN(c3ccc(F)cc3)CC2)n1 [NCGC00430736-01] | 7.08 µM | – | – | – | – | -65.35 | -1.2 | –
21 | COc1cccc(CNC(=O)CCNc2cnc3cnccn23)c1 [NCGC00433986-01] | 14.1 µM | -81.82 | -2.2 | – | – | – | – | –
22 | C[S+](=O)([O-])c1ccc(N2CCN(CC3(O)CNCCOC3)CC2)c(F)c1 (stereo not drawn) [NCGC00435271-01] | 20 µM | -66.49 | -3 | – | – | – | – | –
23 | CCOc1ccc(C(=O)NC2CCN(c3cc(-c4ccc(OC)cc4)n[nH]3)C2)cc1OCC (stereo not drawn) [NCGC00438182-01] | 2.51 µM | -29.34 | -1.4 | – | – | – | – | –
24 | CN(C)CC1(O)CCN(C(=O)Cn2cc(C(=O)C3CC3)c3ccccc32)C1 (stereo not drawn) [NCGC00438461-01] | 35.5 µM | -41.61 | -2.4 | – | – | – | – | –
25 | O=C(Nc1ccc2c(c1)OCCO2)N1CCC(Cc2nnc(-c3ccncc3)[nH]2)C1 (stereo not drawn) [NCGC00438506-01] | 5.62 µM | -41.70 | -2.4 | – | – | – | – | –
26 | COc1ccc(NC2CCCN(C(=O)c3cn(CCCN)nn3)C2)cc1 (stereo not drawn) [NCGC00439852-01] | 0.89 µM | -61.76 | -1.2 | – | – | – | – | –
27 | CCCNC(=O)N1CC(Oc2ccc(-c3nc(C)no3)cc2)C1 [NCGC00441061-01] | 31.6 µM | -48.80 | -2.2 | – | – | – | – | –
28 | O=C(CCc1cc2n(n1)CCCNC2)Nc1ccc2c(c1)OCCO2 [NCGC00441819-01] | 15.8 µM | -25.02 | -2.4 | – | – | – | – | –

Now from value to compound:

Row | AC50 | Efficacy (Table S1, primary screen) | CC-v2 (Table S1, primary screen) | Efficacy (ALDH3A1 biochemical) | IC50 (ALDH3A1 biochemical IC50, text) | Efficacy (Table S2, in-house analogs) | CC-v2 (Table S2, in-house analogs) | LLE (Table S7, pAC50 − cLogP) | Structure (SMILES)
29 | 15.8 µM | -45.94 | -2.2 | – | – | – | – | – | COc1cccc(CN2CC(C(=O)NCc3cc4ccccc4[nH]3)CCC2=O)c1 (stereo not drawn) [NCGC00449252-01]
30 | 4.47 µM | -31.03 | -1.2 | – | – | – | – | – | Cc1ccc2nc(CN3CCC(c4cccc(C#N)c4)CC3)cc(O)c2c1 [NCGC00449346-01]
31 | 10 µM | -21.09 | -1.4 | – | – | – | – | – | O=C(NCc1ccc(Cl)cc1)c1cc2n(n1)CC(c1ccc3c(c1)OCO3)OC2 (stereo not drawn) [NCGC00450299-01]
32 | 39.8 µM | -51.44 | -3 | – | – | – | – | – | COc1cccc(CN2CC(Oc3ccccc3C(=O)NC3CC3)C2)c1 [NCGC00458073-01]
33 | 15.8 µM | -43.09 | -2.4 | – | – | – | – | – | COc1ccc(CCN2Cc3cc(NC(=O)Cc4cccs4)ccc3OCC2=O)cc1 [NCGC00475032-01]
34 | 8.91 µM | -29.51 | -1.4 | – | – | – | – | – | C=CCOc1c(OC)ccc2c1CN(Cc1ccccc1)C(=O)CCN2CC(O)COc1ccc(OC)cc1 (stereo not drawn) [NCGC00501442-01]
35 | 35.5 µM | -44.11 | -2.2 | – | – | – | – | – | O=C(NCc1nc(-c2ccccc2)no1)C1CCN(c2cc(-n3cncn3)ncn2)CC1 [NCGC00526793-01]
36 | 28.2 µM | -52.11 | -2.2 | – | – | – | – | – | Cc1cc(C)c(C)c([S+](=O)([O-])NCCC(=O)N2CCc3[nH]c(=O)c(C#N)cc3C2)c1C [NCGC00527311-01]
37 | 35.5 µM | -47.14 | -2.4 | – | – | – | – | – | COc1ccc(CCC(=O)N2CCc3[nH]c(=O)c(C#N)cc3C2)c(OC)c1OC [NCGC00527314-01]
38 | 14.1 µM | -59.29 | -2.4 | – | – | – | – | – | O=C(NCC(F)(F)F)c1cc(C2CCN(C(=O)c3cc(-c4ccco4)n[nH]3)CC2)n[nH]1 [NCGC00528999-01]
39 | 11.2 µM | -31.52 | -2.2 | – | – | – | – | – | CC(O)c1ccc(CCNC(=O)C(=O)Nc2cc3c4c(c2)CC(=O)N4CCC3)s1 (stereo not drawn) [NCGC00529385-01]
40 | 20 µM | -57.15 | -2.2 | – | – | – | – | – | Cc1cc(=O)[nH]c(N2CCC(NC(=O)NCc3ccco3)CC2)n1 [NCGC00530028-01]
